Results published in PMC7892554 (Scientific Reports, 2021).
“Also recorded” adds a separate entry of the source. Like-named read-outs stand apart in the source and are kept apart here. Positions of bridges follow the written chain, without caps; N, C: chain ends. Residues, ends and D or L forms follow the SMILES beside them.

Assays:
M. tuberculosis H37Rv = system: M. tuberculosis H37Rv; set-up: species or system BALB/c mice; settings: mouse, in vivo
[1] = system: M. tuberculosis H37Rv infected mice; format: in vivo, BALB/c mice
[2] = mouse, in vivo, iv, 33 mg/kg
M. smegmatis = format: cell-based, Mycobacterium smegmatis mc^2155
in vivo = settings: male, BALB/c, mouse, iv, 33 mg/kg
[3] = in vivo; cited from earlier work

Q: With `CC[C@@H](CO)NCCN[C@@H](CC)CO` [ethambutol] as the molecule, how does the “Bacterial (CFU) reduction compared to the untreated control” value (“Bacterial (CFU) reduction” for short) (M. tuberculosis H37Rv) read?
A: 79%

Q: And the “Lung tissue destruction / inflammatory score (perivascular, peribronchiolar and alveolar infiltration)” value ([1]; n = 4–5)?
A: more severe tissue destruction

Q: With `CC[C@H](C)[C@@H]1NC(=O)[C@H](CO)NC(=O)[C@H](CCCCN)NC(=O)[C@@H]2CSSC[C@@H](C(=O)N[C@@H](Cc3ccc(O)cc3)C(=O)O)NC(=O)[C@H](CCCCN)NC(=O)[C@@H]3CSSC[C@H](NC(=O)[C@H](CCC(N)=O)NC(=O)[C@H]([C@@H](C)CC)NC(=O)[C@H](CC(=O)O)NC(=O)[C@H](CC(=O)O)NC(=O)[C@H](CCC(=O)O)NC(=O)[C@H](CO)NC(=O)[C@H](Cc4c[nH]c5ccccc45)NC(=O)[C@@H]4CCCN4C(=O)CNC(=O)[C@H](CC(N)=O)NC(=O)[C@@H](NC(=O)CNC(=O)[C@H](Cc4ccccc4)NC(=O)CN)CSSC[C@H](NC(=O)[C@H](Cc4ccc(O)cc4)NC(=O)CNC(=O)CNC(=O)[C@H](CCCCN)NC(=O)[C@H](Cc4ccc(O)cc4)NC(=O)CNC(=O)[C@H](CCCCN)NC1=O)C(=O)N[C@@H](C)C(=O)N[C@@H](CCCNC(=N)N)C(=O)NCC(=O)NCC(=O)N[C@@H](Cc1ccccc1)C(=O)N[C@@H](C(C)C)C(=O)N3)C(=O)N[C@@H](Cc1c[nH]cn1)C(=O)N[C@@H](CC(N)=O)C(=O)N[C@@H](Cc1c[nH]cn1)C(=O)N2` [NZX] (H-GFGCNGPWSEDDIQCHNHCKSIKGYKGGYCARGGFVCKCY-OH; disulfide 4-30, 15-37, 19-39) as the molecule, how does the “Bacterial (CFU) reduction” value (M. tuberculosis H37Rv) read?
A: 75%

Q: What about the “Lung tissue destruction / inflammatory score (perivascular, peribronchiolar and alveolar infiltration)” value ([1]; mouse, in vivo) of the same molecule?
A: decreased tissue destruction

Q: And the “NZX in the circulation after 240 min” value [2]?
A: not detected

Q: What about the “Frequency at which resistant mutants emerge” value (M. smegmatis) of the same molecule?
A: < 10^–9

Q: What about the Resistant mutants detected (M. smegmatis) of the same molecule?
A: did not detect any resistant mutants

Q: And the Cmax (in vivo)?
A: 61 µg/mL

Q: What about the half-life (in vivo) of the same molecule?
A: 42 min

Q: With plectasin as the molecule, how does the “Terminal serum elimination half-life” value [3] read?
A: 51 min

Q: For `NNC(=O)c1ccncc1` [isoniazid], which “Bacterial (CFU) reduction” value (M. tuberculosis H37Rv) is on record?
A: 92%

Q: What about the “Lung tissue destruction / inflammatory score (perivascular, peribronchiolar and alveolar infiltration)” value ([1]; n = 4–5) of the same molecule?
A: decreased tissue destruction; also recorded: preserved alveolar structure best
